Among the data in PubChem BioAssay AID248 (DTP/NCI, 2004) are T/C values, retold here.

The experiment has as its system L1210 leukemia ip in BDF1 mice, survival T/C. Description: NCI In Vivo Anticancer Drug Screen. Data for tumor model L1210 Leukemia (intraperitoneal) in B6D2F1 (BDF1) mice. Particulars: endpoint: mean survival time, higher = longer survival. The method, boiled down: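 Value reflects the ratio of survival in compound-treated mice to survival in vehicle-treated controls, with both groups carrying the same transplanted tumor.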

Where [1] appears, read: dose: 100.0 mg/kg/injection, schedule: Q01DX009 (ip), vehicle: Klucel (hydroxypropylcellulose) (HPC).
[2] abbreviates: dose: 100.0 mg/kg/injection, schedule: Q04DX003 (ip), vehicle: saline with Tween-80.
Setting [3] is: dose: 200.0 mg/kg/injection, schedule: Q01DX009 (ip), vehicle: Klucel (hydroxypropylcellulose) (HPC).
Setting [4] is: dose: 400.0 mg/kg/injection, schedule: Q01DX009 (ip), vehicle: Klucel (hydroxypropylcellulose) (HPC).
The mark [5] stands for this setting: dose: 12.5 mg/kg/injection, schedule: Q01DX009 (ip), vehicle: saline.
Where [6] appears, read: dose: 12.5 mg/kg/injection, schedule: Q04DX003 (ip), vehicle: saline.
[7] abbreviates: dose: 25.0 mg/kg/injection, schedule: Q01DX009 (ip), vehicle: saline.
The mark [8] stands for this setting: dose: 25.0 mg/kg/injection, schedule: Q04DX003 (ip), vehicle: saline.
[9] abbreviates: dose: 50.0 mg/kg/injection, schedule: Q01DX009 (ip), vehicle: saline.
Setting [10] is: dose: 50.0 mg/kg/injection, schedule: Q04DX003 (ip), vehicle: saline.
Where [11] appears, read: dose: 100.0 mg/kg/injection, schedule: Q01DX009 (ip), vehicle: saline.
[12] abbreviates: dose: 100.0 mg/kg/injection, schedule: Q04DX003 (ip), vehicle: saline.
Setting [13] is: dose: 100.0 mg/kg/injection, schedule: Q04DX002 (ip), vehicle: saline with Tween-80.
Where [14] appears, read: dose: 200.0 mg/kg/injection, schedule: Q04DX002 (ip), vehicle: saline with Tween-80.
The mark [15] stands for this setting: dose: 400.0 mg/kg/injection, schedule: Q04DX002 (ip), vehicle: saline with Tween-80.
Setting [16] is: dose: 100.0 mg/kg/injection, schedule: Q01DX009 (ip), vehicle: saline with Tween-80.
Setting [17] is: dose: 200.0 mg/kg/injection, schedule: Q01DX009 (ip), vehicle: saline with Tween-80.
Where [18] appears, read: dose: 400.0 mg/kg/injection, schedule: Q01DX009 (ip), vehicle: saline with Tween-80.
Where [19] appears, read: dose: 400.0 mg/kg/injection, schedule: Q01DX001 (ip), vehicle: saline.
Where [20] appears, read: dose: 100.0 mg/kg/injection, schedule: Q04DX003 (ip), vehicle: Klucel (hydroxypropylcellulose) (HPC).
Where [21] appears, read: dose: 200.0 mg/kg/injection, schedule: Q04DX003 (ip), vehicle: Klucel (hydroxypropylcellulose) (HPC).
Where [22] appears, read: dose: 400.0 mg/kg/injection, schedule: Q04DX003 (ip), vehicle: Klucel (hydroxypropylcellulose) (HPC).

“And” between values parts separate entries of the source, which are not always exact repeats. Equal values may be shown once. Toxic doses and inconclusive results are not listed.

Consider `CC(C)C(=O)Nc1cccnc1`, for which the T/C by setting is: (dose: 10.0 mg/kg/injection, schedule: Q01DX001 (ip), vehicle: saline) 100 % of control; (dose: 20.0 mg/kg/injection, schedule: Q01DX001 (ip), vehicle: saline) 103 % of control; (dose: 40.0 mg/kg/injection, schedule: Q01DX001 (ip), vehicle: saline) 94 % of control.

In the case of `O=C(O)c1ccc(Nc2c3ccccc3nc3ccccc23)cc1`, the T/C is, setting by setting: (dose: 50.0 mg/kg/injection, schedule: Q01DX009 (ip), vehicle: Klucel (hydroxypropylcellulose) (HPC)) 177 % of control; under setting [1], 243 % of control.

As for `CC(C)=CC(=O)OC(=O)C=C(C)C`, the T/C runs as follows: (dose: 100.0 mg/kg/injection, schedule: Q01DX009 (ip), vehicle: other) 105 % of control; under setting [2], 98 % of control; (dose: 200.0 mg/kg/injection, schedule: Q01DX009 (ip), vehicle: other) 88 % of control; (dose: 200.0 mg/kg/injection, schedule: Q04DX003 (ip), vehicle: saline with Tween-80) 96 % of control; (dose: 400.0 mg/kg/injection, schedule: Q01DX009 (ip), vehicle: other) 91 % of control; (dose: 400.0 mg/kg/injection, schedule: Q04DX003 (ip), vehicle: saline with Tween-80) 89 % of control.

Consider `Cc1cccc(Cl)c1NC(=O)N(Cc1ccccc1)Cc1ccccc1`, for which the T/C under setting [1] is 100 % of control, the T/C under setting [3] is 105 % of control and the T/C under setting [4] was 97 % of control.

In the case of `CC(=O)N(C)N`, the T/C under setting [5] is 98 % of control; the T/C under setting [6] was 112 % of control; the T/C under setting [7] is 103 % of control; the T/C under setting [8] is 106 % of control; the T/C under setting [9] is 104 % of control; the T/C under setting [10] was 106 % of control. For the same molecule, the T/C reads like this: under setting [11], 117 % of control; under setting [12], 108 % of control; (dose: 200.0 mg/kg/injection, schedule: Q04DX003 (ip), vehicle: saline) 105 % of control.

`O=C1NC(=S)S/C1=C/C=C/c1ccccc1`: the T/C is 95 % of control under setting [13], 87 % of control under setting [14] and 98 % of control under setting [15].

For the molecule `COc1ccc(-c2nc3cc(Cl)ccc3c(=O)o2)cc1`, the T/C is 94 % of control under setting [16], 94 % of control under setting [17] and 90 % of control under setting [18].

For the molecule `O=C(CS(=O)(=O)O)c1ccc(Br)cc1`, the T/C was 97 % of control under setting [13], 97 % of control under setting [14] and 94 % of control under setting [15].

For the molecule `Cn1c2ccccc2c(=O)c2ccccc21`, the T/C is 117 % of control (dose: 100.0 mg/kg/injection, schedule: Q01DX001 (ip), vehicle: saline); 101 % of control (dose: 200.0 mg/kg/injection, schedule: Q01DX001 (ip), vehicle: saline); 101 % of control under setting [19].

For `O=C(/C=C/c1ccc2c(c1)OCO2)c1ccc(OCc2ccccc2)cc1`, the T/C is, setting by setting: (dose: 25.0 mg/kg/injection, schedule: Q04DX002 (ip), vehicle: saline) 111 % of control; (dose: 50.0 mg/kg/injection, schedule: Q04DX002 (ip), vehicle: saline) 108 % of control; (dose: 100.0 mg/kg/injection, schedule: Q04DX002 (ip), vehicle: saline) 118 % of control; (dose: 200.0 mg/kg/injection, schedule: Q04DX002 (ip), vehicle: saline) 96 % of control; (dose: 400.0 mg/kg/injection, schedule: Q04DX002 (ip), vehicle: saline) 92 % of control.

Consider `CCOC(=O)/C(C#N)=C\C=C\c1ccccc1`, for which the T/C is, setting by setting: under setting [1], 92 % of control; under setting [20], 96 % of control; under setting [3], 98 % of control; under setting [21], 98 % of control; under setting [22], 102 % of control.

With `Oc1cccc[c]1[Hg][Cl]`, the T/C was 98 % of control (dose: 1.0 mg/kg/injection, schedule: Q01DX009 (ip), vehicle: Klucel (hydroxypropylcellulose) (HPC)); 98 % of control (dose: 1.0 mg/kg/injection, schedule: Q04DX003 (ip), vehicle: saline); 89 % of control (dose: 3.0 mg/kg/injection, schedule: Q01DX009 (ip), vehicle: Klucel (hydroxypropylcellulose) (HPC)); 94 % of control (dose: 3.0 mg/kg/injection, schedule: Q04DX003 (ip), vehicle: saline); 94 % of control and 91 % of control (dose: 6.0 mg/kg/injection, schedule: Q01DX009 (ip), vehicle: Klucel (hydroxypropylcellulose) (HPC)).

As to `CC(C)C(CCN1CCCCC1)(CNC1=NCCN1)c1cccc2ccccc12` (centres undefined), the T/C is, setting by setting: (dose: 3.12 mg/kg/injection, schedule: Q04DX002 (ip), vehicle: Klucel (hydroxypropylcellulose) (HPC)) 103 % of control; (dose: 5.0 mg/kg/injection, schedule: Q01DX009 (ip), vehicle: Klucel (hydroxypropylcellulose) (HPC)) 99 % of control; (dose: 6.25 mg/kg/injection, schedule: Q04DX002 (ip), vehicle: Klucel (hydroxypropylcellulose) (HPC)) 100 % of control; (dose: 10.0 mg/kg/injection, schedule: Q01DX009 (ip), vehicle: Klucel (hydroxypropylcellulose) (HPC)) 102 % of control; (dose: 12.5 mg/kg/injection, schedule: Q04DX002 (ip), vehicle: Klucel (hydroxypropylcellulose) (HPC)) 103 % of control; (dose: 12.5 mg/kg/injection, schedule: Q04DX003 (ip), vehicle: Klucel (hydroxypropylcellulose) (HPC)) 92 % of control. In addition, the T/C (dose: 20.0 mg/kg/injection, schedule: Q01DX009 (ip), vehicle: Klucel (hydroxypropylcellulose) (HPC)) was 89 % of control; the T/C (dose: 25.0 mg/kg/injection, schedule: Q04DX003 (ip), vehicle: Klucel (hydroxypropylcellulose) (HPC)) was 97 % of control; the T/C (dose: 50.0 mg/kg/injection, schedule: Q04DX003 (ip), vehicle: Klucel (hydroxypropylcellulose) (HPC)) was 90 % of control.

Regarding `CC(=O)OC(C(=O)c1ccccc1)c1ccccc1` (centres undefined), the T/C is, setting by setting: under setting [1], 94 % of control; under setting [20], 104 % of control; under setting [3], 94 % of control; under setting [21], 104 % of control; under setting [4], 104 % of control; under setting [22], 91 % of control.

Take `CN(Cc1ccccc1)C(=O)Nc1cccc(C(F)(F)F)c1`: the T/C is, setting by setting: under setting [16], 107 % of control; under setting [17], 98 % of control; under setting [18], 96 % of control.

For the molecule `[B-][NH2+]CC[NH2+][B-]`, the T/C under setting [19] was 117 % of control.

On to `Cc1ccc([P+](Cc2ccccc2)(c2ccc(C)cc2)c2ccc(C)cc2)cc1`, for which the T/C runs as follows: (dose: 75.0 mg/kg/injection, schedule: Q01DX001 (ip), vehicle: saline) 97 % of control; (dose: 150.0 mg/kg/injection, schedule: Q01DX001 (ip), vehicle: saline) 97 % of control.

Turning to `CCCCCCCCCCCC1=NCCN1`, the T/C (dose: 6.25 mg/kg/injection, schedule: Q01DX009 (ip), vehicle: saline) was 91 % of control; the T/C under setting [5] is 91 % of control; the T/C under setting [6] was 89 % of control; the T/C (dose: 25.0 mg/kg/injection, schedule: Q01DX009 (ip), vehicle: saline with Tween-80) is 93 % of control; the T/C under setting [7] is 93 % of control; the T/C (dose: 25.0 mg/kg/injection, schedule: Q04DX003 (ip), vehicle: saline with Tween-80) was 97 % of control. Moreover, the T/C was 94 % of control under setting [8]; 91 % of control under setting [9]; 97 % of control (dose: 50.0 mg/kg/injection, schedule: Q04DX003 (ip), vehicle: saline with Tween-80); 94 % of control under setting [10]; 100 % of control under setting [1]; 100 % of control under setting [2]. The T/C under setting [3] was 96 % of control and the T/C under setting [4] was 88 % of control.

Regarding `N#CCCNc1ccc(NC(=O)C(F)(F)F)cc1`, the T/C runs as follows: under setting [7], 92 % of control; under setting [9], 92 % of control; under setting [11], 94 % of control; under setting [12], 87 % of control.
